Data on 2 compounds can be found in patent US6878536B2, “Phosphoriboxyl-pyrophosphate synthetase polypeptide” (BASF, priority 1997, dated 2005).

The test has as its system glutamine-PRPP amidotransferase from Ashbya gossypii. The experiment in a line: Activity of glutamine-PRPP amidotransferase (Messenger and Zalkin method). The test is classed as biochemical. The note with it: wild-type enzyme, FIG. 1. The source says:
The glutamine-PRPP amidotransferase from Ashbya gossypii is likewise inhibited by AMP or GMP (see Figure). The activity of glutamine-phosphoribosyl-pyrophosphate amidotransferase from Ashbya gossypii can be measured as described in Messenger and Zalkin (1979) J. Biol. Chem. 254, pages 3382-3392.
This can be shown, for example, by expressing the enzymes in Ashbya gossypii (see Example 11).
Measurement of the activity of Gln-PRPP amidotransferase from A. gossypii and of modified forms of the enzyme as a function of the concentration of adenosine 5′-monophosphate (AMP) and guanosine 5′-monophosphate (GMP).

Each structure is given as a SMILES string.

With `Nc1ncnc2c1ncn2[C@@H]1O[C@H](COP(=O)(O)O)[C@@H](O)[C@H]1O` [AMP, adenosine 5′-monophosphate], the “inhibition of glutamine-PRPP amidotransferase from Ashbya gossypii” value is “inhibited”.

As to `Nc1nc2c(ncn2[C@@H]2O[C@H](COP(=O)(O)O)[C@@H](O)[C@H]2O)c(=O)[nH]1` [GMP, guanosine 5′-monophosphate], the “inhibition of glutamine-PRPP amidotransferase from Ashbya gossypii” value was “inhibited”.
